# Test results as given in the supplement of paper PMC10307832.
# Assays:
# Test in all cases: relative viability (nuclei count vs DMSO), 5 days (fraction); higher = more cells survive
# [1] = compound: COc1cc2nc(N3CCCN(C)CC3)nc(NC3CCN(Cc4ccccc4)CC3)c2cc1OC
# In short: (§1)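 Lung cancer cell lines were seeded into 1536-well plates, kept overnight at 37 °C and pinned with five library-drug doses (not always all listed) spaced by √10. After 5 days, nuclei were Hoechst-stained, imaged at 4× and counted with MetaXpress. Viability is treated-well nuclei over vehicle-well nuclei, taken as a median across plates. Plates needed control CV below 25% and at least one doubling.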
# AZD6482 = compound: Cc1cc([C@@H](C)Nc2ccccc2C(=O)O)c2nc(N3CCOCC3)cc(=O)n2c1 [AZD6482]
# In short: as §1
# [2] = compound: COc1cc2nc(N3CCCN(C)CC3)nc(NC3CCN(Cc4ccccc4)CC3)c2cc1OC + Cc1nc(NC(=O)N2CCC[C@H]2C(N)=O)sc1-c1ccnc(C(C)(C)C(F)(F)F)c1 [Alpelisib] (partner 2 µM)
# In short: (§2)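 For relative viability, nuclei counts in treated wells were divided by those in vehicle wells. Lung cancer cell lines had been pin-tool dosed in 1536-well plates the day after seeding and cultured for 5 days, then fixed and stained in one step (final 0.05% Triton X-100, 1% formaldehyde, 1 ug/ml Hoechst) and imaged at 4×. Doses were one drug alone or a fixed anchor-drug dose plus five library-drug doses (not always all listed) in √10 steps, and values are duplicate-plate medians.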
# AZD6482 + Pemetrexed = compound: Cc1cc([C@@H](C)Nc2ccccc2C(=O)O)c2nc(N3CCOCC3)cc(=O)n2c1 [AZD6482] + Nc1nc2[nH]cc(CCc3ccc(C(=O)N[C@@H](CCC(=O)O)C(=O)O)cc3)c2c(=O)[nH]1 [Pemetrexed] (partner 0.2 µM)
# In short: as §2
Cell Line,relative viability ([1]; 0.2 µM),relative viability ([1]; 0.6325 µM),relative viability ([1]; 2 µM),relative viability ([1]; 6.325 µM),relative viability (AZD6482; 0.08 µM),relative viability (AZD6482; 0.253 µM),relative viability (AZD6482; 0.8 µM),relative viability (AZD6482; 2.53 µM),relative viability (AZD6482; 8 µM),relative viability ([2]; first compound 0.2 µM),relative viability ([2]; first compound 0.6325 µM),relative viability ([2]; first compound 2 µM),relative viability ([2]; first compound 6.325 µM),relative viability (AZD6482 + Pemetrexed; first compound 0.08 µM),relative viability (AZD6482 + Pemetrexed; first compound 0.253 µM),relative viability (AZD6482 + Pemetrexed; first compound 0.8 µM),relative viability (AZD6482 + Pemetrexed; first compound 2.53 µM),relative viability (AZD6482 + Pemetrexed; first compound 8 µM)
LU99A,0.868,0.838,1.03,0.885,0.915,0.894,1.04,0.797,0.948,0.539,0.458,0.454,0.479,0.187,0.2,0.158,0.17,0.172
LXF-289,0.99,0.993,1.04,1,1.01,1.07,1.06,0.93,0.973,1.04,0.964,1.06,0.986,0.678,0.94,1.08,0.849,0.922
NCI-H23,0.975,0.962,1.05,0.927,0.967,0.861,1,0.61,0.624,0.623,0.693,0.775,0.675,0.651,0.484,0.715,0.375,0.43
NCI-H322M,0.856,1.09,0.9,0.854,0.847,0.822,0.838,0.495,0.633,0.741,0.814,0.781,0.68,0.572,0.61,0.62,0.49,0.498
NCI-H358,0.918,1.03,0.939,0.684,0.856,0.86,0.92,0.468,0.489,0.935,0.888,1.01,0.533,0.16,0.174,0.164,0.154,0.145
NCI-H441,0.985,0.825,1.03,0.81,1.01,0.896,1.22,,1.02,0.919,,0.601,0.655,0.261,0.267,0.276,,0.282
NCI-H460,0.997,1.01,0.992,0.978,0.963,0.969,1.01,0.846,0.822,0.481,0.483,0.42,0.242,0.0644,0.0667,0.0599,0.0555,0.0589
NCI-H520,1.02,0.912,1.02,0.736,0.713,0.627,0.623,0.208,0.337,0.947,0.98,0.867,0.452,0.501,0.409,0.394,0.144,0.222
NCI-H596,0.969,1.19,0.964,0.836,0.844,0.91,0.92,0.909,0.929,0.616,0.458,0.498,0.44,0.451,0.485,0.486,0.462,0.492
NCI-H647,0.872,1.06,1.04,0.764,0.797,0.564,0.859,0.513,0.646,1.12,1.13,1.18,0.448,0.154,0.161,0.191,0.16,0.158
NCI-H650,0.973,0.935,1.09,0.862,1.07,,0.92,0.653,0.685,1.06,0.997,1.18,1,1.01,0.859,0.874,0.568,0.441
NCI-H661,0.978,0.987,1,1.01,0.981,0.98,0.973,0.671,0.851,0.556,0.64,0.809,0.774,0.94,1.01,0.974,0.74,0.803
NCI-H838,0.992,1.03,1.08,0.92,0.826,0.95,0.914,0.538,0.535,1.04,1.14,1.09,0.853,0.287,0.264,0.25,0.226,0.232
NCI-H1355,0.891,0.992,1,0.95,0.872,0.852,1.01,0.733,0.777,0.83,0.861,0.856,0.805,0.939,1.07,1.07,0.856,0.875
NCI-H1395,0.925,1.09,0.976,0.787,0.742,0.539,0.697,0.443,0.527,1.1,1.04,1.07,0.589,0.742,0.552,0.591,0.45,0.521
NCI-H1437,0.983,0.992,1.06,0.99,1.04,0.972,1.03,0.847,0.726,0.995,0.971,1.12,0.828,0.314,0.307,0.306,0.274,0.225
NCI-H1563,0.974,0.963,0.967,0.966,0.829,0.852,0.906,0.763,0.722,0.954,0.904,0.834,0.73,0.666,0.676,0.642,0.605,0.698
NCI-H1651,0.974,0.983,1.02,1.03,0.897,0.932,0.93,0.814,0.815,0.921,0.915,1.16,1.1,0.578,0.545,0.556,0.401,0.482

Cell Line,relative viability ([1]; 0.2 µM),relative viability ([1]; 0.6325 µM),relative viability ([1]; 2 µM),relative viability ([1]; 6.325 µM),relative viability (AZD6482; 0.08 µM),relative viability (AZD6482; 0.253 µM),relative viability (AZD6482; 0.8 µM),relative viability (AZD6482; 2.53 µM),relative viability (AZD6482; 8 µM),relative viability ([2]; first compound 0.2 µM),relative viability ([2]; first compound 0.6325 µM),relative viability ([2]; first compound 2 µM),relative viability ([2]; first compound 6.325 µM),relative viability (AZD6482 + Pemetrexed; first compound 0.08 µM),relative viability (AZD6482 + Pemetrexed; first compound 0.253 µM),relative viability (AZD6482 + Pemetrexed; first compound 0.8 µM),relative viability (AZD6482 + Pemetrexed; first compound 2.53 µM),relative viability (AZD6482 + Pemetrexed; first compound 8 µM)
NCI-H1666,0.948,1.05,0.947,0.903,0.842,0.95,0.984,0.853,1.05,0.924,0.993,0.951,0.461,0.902,0.964,0.905,0.735,0.82
NCI-H1734,0.967,0.876,0.889,0.855,0.905,0.907,1.04,0.611,0.795,0.657,0.613,0.798,0.736,0.408,0.442,0.408,0.396,0.397
NCI-H1755,0.974,0.957,0.939,0.935,0.957,0.953,1,0.756,0.785,0.979,0.844,0.916,0.871,0.416,0.435,0.436,0.383,0.36
NCI-H1792,0.821,1.06,0.952,1.11,0.753,0.758,0.878,0.412,0.496,0.725,0.74,0.717,0.737,0.63,0.632,0.641,0.303,0.417
NCI-H1793,0.86,0.959,0.863,0.819,0.774,0.5,0.756,0.386,0.499,0.677,0.722,0.812,0.785,0.509,0.545,0.818,0.416,0.383
NCI-H1915,0.978,0.908,1.06,0.973,0.996,0.897,1.09,0.893,1.01,1.06,0.998,1.1,1.1,0.491,0.434,0.513,0.349,0.452
NCI-H1944,1.01,1,0.745,0.902,0.92,0.836,0.946,0.685,0.735,0.822,0.909,,0.912,0.535,0.575,0.604,0.427,0.499
NCI-H1975,0.974,0.999,1.15,1,0.853,0.84,0.939,0.652,0.573,0.718,0.597,0.727,0.616,0.257,0.28,0.31,0.303,0.308
NCI-H1993,0.879,1.18,0.912,0.905,0.68,0.792,0.631,0.557,0.676,0.668,0.637,0.692,0.662,0.464,0.58,0.48,0.4,1.03
NCI-H2009,1.04,0.94,1.17,0.932,1.02,1.04,1.06,0.59,0.74,1.24,1.07,1.18,1.07,0.972,1.12,1.11,0.724,1.01
NCI-H2023,0.949,0.995,0.93,0.516,0.923,0.881,0.909,0.567,0.662,0.661,0.634,0.714,0.331,0.254,0.226,0.204,0.175,0.176
NCI-H2085,1.01,1.02,0.992,0.965,0.801,0.675,0.588,0.4,0.384,1.06,0.972,1,0.799,0.567,0.384,0.407,0.317,0.299
NCI-H2087,0.921,0.995,1.03,1.09,0.841,0.996,1.35,0.555,1.08,1.15,1.2,1.27,1.05,0.682,0.63,0.596,0.593,0.674
NCI-H2126,0.996,1.02,0.998,0.926,0.916,0.94,0.891,0.585,0.654,0.83,0.734,0.761,0.717,0.683,0.677,0.692,0.411,0.434
NCI-H2170,1.02,0.963,1,0.975,0.909,0.897,0.944,0.851,0.927,0.838,0.805,0.851,0.835,0.257,0.242,0.265,0.252,0.251
NCI-H2228,0.9,1.12,1.07,0.753,0.745,0.965,1.17,0.775,0.901,0.587,0.685,0.661,0.409,0.325,0.3,0.325,0.303,0.309
NCI-H2347,1.02,0.975,1.04,1,0.627,0.785,0.805,0.617,0.664,0.929,1.02,1.03,0.831,0.382,0.455,0.362,0.38,0.364
